Test results as given in patent US4266034A, “Method for producing microbial cells and use thereof to produce oxidation products” (priority 1979, dated 1981).

What was measured:
[1] = system: methanol-grown Methylococcus capsulatus CRL M1 (NRRL B-11,219); experiment: Production of 2-butanone from 2-butanol by cell suspensions, inhibition studies; type: cell-based; conditions: 1 mM
[2] = system: secondary alcohol dehydrogenase (SADH); experiment: Purified secondary alcohol dehydrogenase (SADH) activity; type: biochemical, Pseudomonas sp. ATCC 21439; conditions: each inhibitor 1 mM; measured spectrofluorometrically
Experimental: Secondary alcohol dehydrogenase (SADH) from an obligate methanol utilizer, Pseudomonas sp. ATCC 21439 was purified as follows. […] 0.05 M sodium phosphate buffer, pH 7.0 with 0.5 mM dithiothretol (buffer A) and were disrupted sonically (5×1 min.). The crude extract was separated by centrifugation. The crude extract was heat-treated at 50° C. in a water bath for 10 minutes. The resulting precipitate was removed by centrifugation. To the supernatant solution, 25 ml of protamine sulfate solution (2% solution in 0.1 M Tris base) was added dropwise with continuous stirring. After standing for 30 minutes, the extract was centrifuged. The supernatant solution was fractionated with solid ammonium sulfate. The material precipitating between 30 and 60% saturation was collected and was dialized overnight against buffer A. The The dialized material was applied to a DEAE-cellulose column (3 cm by 35 cm) that had been equilibrated with buffer A. The secondary alcohol dehydrogenase activity was eluted in the void volume. This DEAE-cellulose eluate was concentrated by ammonium sulfate fractionation. Material precipitating between 30 and 50% ammonium sulfate saturation was collected by centrifugation and dialyzed overnight against A. This fraction was further washed and filtered through an Amicon unit with XM 50 membrane. The concentrated fraction (6 ml) inside the Amicon unit was applied to an Affi-Gel Blue column (0.8 cm×18 cm) which had been equilibrated with buffer A for affinity chromatography. The column was washed overnight with buffer A (0.18 ml./min.) and then was eluted with buffer A containing 5 mM NAD. Each 1 ml. fraction was collected.
The purified secondary alcohol dehydrogenase enzyme (SADH) may be used directly for converting C3 -C6 secondary alcohols to the corresponding methyl ketones by the procedures described above; however, a source of NAD^+ must be added to the reaction medium. One can determine the NAD-linked secondary alcohol dehydrogenase activity with a fluorescence spectrophotometer (Perkin Elmer, Model MPF 44A) by following the formation of reduced NAD (Ex 340 nm, Em 460 nm). The assay system (3 ml.) will typically contain: sodium phosphate buffer pH 7.0, 150 μmol; NAD 1.0 μmol; a given amount of enzyme preparation; and 20 μmol secondary alcohol. The reaction is started by the addition of secondary alcohol. One unit of SADH enzyme activity represents the reduction of one nmole NAD per minute.
The effect of metal-chelating agents and thioreagents on the activity of the purified SADH enzyme were studied. […] The possibility of ethanol or n-propanol as an inhibitor was studied.

[3] = system: secondary alcohol dehydrogenase; experiment: Purified yeast-derived secondary alcohol dehydrogenase activity; type: biochemical, Pichia sp. NRRL Y-11,328; conditions: purified enzyme
Experimental: Large scale cultures of Pichia sp. NRRL Y-11,328 were grown with aeration at 30° C. in a 14-liter New Brunswick f fermentor in a mineral salt medium containing methanol (0.4%, v/v) as the sole carbon source. The cells (200 g., wet weight) were suspended in […] sodium phosphate buffer, pH 7.0, containing 1 mM dithiothreitol (buffer A), and crude extracts were prepared as described previously. To the crude extracts, 18 ml. of protamine sulfate solution [2% solution in 0.1 M tris (hydroxymethyl) aminomethane (tris) base] was added dropwise with continuous stirring. After standing for 30 min., the extracts were centrifuged at 20,000×g. for 60 min. The supernatant solution was fractionated with solid ammonium sulfate. Extracts were brought to 50% of saturation with respect to ammonium sulfate by addition of 313 g. of the salt per liter of extract. Precipitated proteins was removed by centrifugation, and 137 g. of ammonium sulfate was added per liter of the supernatant liquid to bring it to 70% of saturation. Material precipitating between 50 and 70% of saturation was collected by centrifugation and dissolved in buffer A. This preparation was dialyzed overnight against buffer A, and the dialyzed material was applied to a DEAE-cellulose column (5×40 cm) that had been equilibrated with buffer A. The sample was washed with 200 ml. of buffer A and eluted with 2 liters of buffer A that contained NaCl in a linear gradient running from a concentration of 0 to 0.5 M. Fractions of 15 ml. were collected. Fractions containing secondary alcohol dehydrogenase activity were pooled and were termed DEAE-cellulose eluate. The DEAE-cellulose eluate was concentrated by ammonium sulfate fractionation.
Secondary alcohol dehydrogenase activity was measured spectrophotometrically at 340 nm with a NAD^+ as an electron acceptor. The reaction mixture, in a total 3.0 ml., contained 50 mM phosphate buffer, pH 8.0, 5 μmoles NAD^+, crude extracts, and substrate. […] Protein concentration was determined by the method of Lowry et al.
The substrate specificity of the purified secondary alcohol dehydrogenase was examined spectrophotometrically.

[4] = system: cell-free particulate fractions derived from the methylotrophic microorganisms; experiment: Inhibition of conversion of C3-C6 n-alkanes to sec. alcohols by cell-free particulate fractions; type: biochemical; conditions: oxygen and NADH
Description: The conditions for preparing the cell suspensions or the cell-free particulate fractions from methane-grown methylotroph microorganisms is the same as described above. […] Tables XXV and XXVI show the conversion of C3 -C6 n-alkanes to the corresponding secondary alcohols using cell suspensions and cell-free particulate fractions, respectively, of methane-grown methylotroph microorganisms.

c1cnc2c(c1)ccc1cccnc12 [1,10-Phenanthroline]
Inhibition of 2-butanone production (yes/no) [1]: inhibited
% inhibition of SADH activity [2]: 95%
inhibition of secondary alcohol dehydrogenase activity [3]: strongly inhibited
inhibition of the conversion of n-alkanes to sec. alcohols [4]: inhibited
